The term MIC denotes the least concentration at which growth counts as inhibited.

≈ marks a conversion by molar mass, not a printed value. Where a SMILES comes first, the peptide text is derived from it. Where only a bound is given, the exact number is not on record here.

Assay [1] concerns M. abscessus clinical isolate MAB01. Briefly: In vitro susceptibility testing (DST), CLSI broth microdilution. Type of assay: cell-based, M. abscessus subsp. abscessus. More on the design: key to DST profile, interpretation, Day 3 / DST profile, interpretation, Day 5 / DST profile, interpretation, Day 14: S, susceptible; I, intermediate; R, resistant. The procedure: (§1) Drug susceptibility testing (DST) was performed according to the Clinical and Laboratory Standards Institute (CLSI) guidelines M24-A2 [42] using the broth microdilution method to determine the minimum inhibitory concentration (MIC). […] Colonies were grown at an adjusted cell density to a 0.5 McFarland standard and further diluted to 5×10^5 CFU/ml. […] These were then incubated at 37°C for 3, 5 and 14 days. The MIC was defined as the concentration in which no visible growth was observed. The results were interpreted according to the guidelines of CLSI. Inducible resistance was inferred by changes in MIC values from being susceptible at day 3 to resistant at day 14.
A general note: In broth dilution the organism is exposed to a series of concentrations in liquid medium.

For assay [2], the system named is M. abscessus clinical isolate MAB02. Described as above. Type of assay: cell-based, M. abscessus subsp. abscessus. Also noted: key to DST profile, interpretation, Day 3 / DST profile, interpretation, Day 5 / DST profile, interpretation, Day 14: S, susceptible; I, intermediate; R, resistant. As to the method:
as §1

The test system of assay [3] is M. abscessus clinical isolate MAB03. The description is as above. More on the design: key to DST profile, interpretation, Day 3 / DST profile, interpretation, Day 5 / DST profile, interpretation, Day 14: S, susceptible; I, intermediate; R, resistant. It is filed as cell-based, M. abscessus subsp. abscessus. As to the method: as §1
Assay [4] relates to M. abscessus clinical isolate MAB04. The description is as above. Also noted: key to DST profile, interpretation, Day 3 / DST profile, interpretation, Day 5 / DST profile, interpretation, Day 14: S, susceptible; I, intermediate; R, resistant. Type of assay: cell-based, M. abscessus subsp. abscessus. The procedure: as §1
In assay [5] the test system is M. abscessus clinical isolate MAB05. Described as above. Type of assay: cell-based, M. abscessus subsp. abscessus. More on the design: key to DST profile, interpretation, Day 3 / DST profile, interpretation, Day 5 / DST profile, interpretation, Day 14: S, susceptible; I, intermediate; R, resistant. The procedure: as §1
The test system of assay [6] is M. abscessus clinical isolate MAB06. The assay is described as above. It is filed as cell-based, M. abscessus subsp. abscessus. More on the design: key to DST profile, interpretation, Day 3 / DST profile, interpretation, Day 5 / DST profile, interpretation, Day 14: S, susceptible; I, intermediate; R, resistant. As to the method: as §1
In assay [7] the test system is M. abscessus clinical isolate MAB07. The description is as above. It is filed as cell-based, M. abscessus subsp. abscessus. Also noted: key to DST profile, interpretation, Day 3 / DST profile, interpretation, Day 5 / DST profile, interpretation, Day 14: S, susceptible; I, intermediate; R, resistant. As to the method: as §1
For assay [8], the system named is M. abscessus clinical isolate MAB08. The assay is described as above. It is filed as cell-based, M. abscessus subsp. abscessus. More on the design: key to DST profile, interpretation, Day 3 / DST profile, interpretation, Day 5 / DST profile, interpretation, Day 14: S, susceptible; I, intermediate; R, resistant. As to the method:
as §1

Assay [9] deals with M. abscessus clinical isolate MAB09. The assay is described as above. Type of assay: cell-based, M. abscessus subsp. abscessus. Also noted: key to DST profile, interpretation, Day 3 / DST profile, interpretation, Day 5 / DST profile, interpretation, Day 14: S, susceptible; I, intermediate; R, resistant. The procedure: as §1
Assay [10] has as its system M. abscessus clinical isolate MAB10. Described as above. Type of assay: cell-based, M. abscessus subsp. abscessus. More on the design: key to DST profile, interpretation, Day 3 / DST profile, interpretation, Day 5 / DST profile, interpretation, Day 14: S, susceptible; I, intermediate; R, resistant. As to the method:
as §1

Assay [11] deals with M. abscessus clinical isolate MAB11. Described as above. Type of assay: cell-based, M. abscessus subsp. abscessus. Also noted: key to DST profile, interpretation, Day 3 / DST profile, interpretation, Day 5 / DST profile, interpretation, Day 14: S, susceptible; I, intermediate; R, resistant. As to the method:
as §1

In assay [12] the test system is M. abscessus clinical isolate MAB12. The assay is described as above. Type of assay: cell-based, M. abscessus subsp. massiliense. Also noted: key to DST profile, interpretation, Day 3 / DST profile, interpretation, Day 5 / DST profile, interpretation, Day 14: S, susceptible; I, intermediate; R, resistant. As to the method:
as §1

In assay [13] the test system is M. abscessus clinical isolate MAB13. The assay is described as above. It is filed as cell-based, M. abscessus subsp. massiliense. Also noted: key to DST profile, interpretation, Day 3 / DST profile, interpretation, Day 5 / DST profile, interpretation, Day 14: S, susceptible; I, intermediate; R, resistant. As to the method:
as §1

Assay [14] has as its system M. abscessus clinical isolate MAB14. Described as above. Type of assay: cell-based, M. abscessus subsp. massiliense. Also noted: key to DST profile, interpretation, Day 3 / DST profile, interpretation, Day 5 / DST profile, interpretation, Day 14: S, susceptible; I, intermediate; R, resistant. As to the method: as §1
Assay [15] relates to M. abscessus clinical isolate MAB15. Described as above. It is filed as cell-based, M. abscessus subsp. massiliense. More on the design: key to DST profile, interpretation, Day 3 / DST profile, interpretation, Day 5 / DST profile, interpretation, Day 14: S, susceptible; I, intermediate; R, resistant. As to the method:
as §1

Assay [16] has as its system M. abscessus clinical isolate MAB16. The assay is described as above. It is filed as cell-based, M. abscessus subsp. massiliense. More on the design: key to DST profile, interpretation, Day 3 / DST profile, interpretation, Day 5 / DST profile, interpretation, Day 14: S, susceptible; I, intermediate; R, resistant. The procedure: as §1
The test system of another assay is Mab ATCC19977 strain. Type of assay: cell-based, Mycobacterium abscessus. As to the method:
Briefly, serial dilutions of the AMPs were prepared with potassium phosphate buffer (PPB) from the concentration range of 3.125 to 400 μg/ml and then 50 μl of each dilution were added to each 96-well plate. Colonies of the isolate were suspended and then further diluted in Mueller-Hinton broth to obtain a final concentration of 1×10^3 CFU/ml (optimized according to the available AMP stock concentration). Fifty microliters of this inoculum were added to each well of the plates. The plates were incubated for 3 days at 37°C. Plain media and bacterial suspensions without AMPs were used as negative and positive controls. The MIC values were read and recorded. All assays were performed in duplicate and two independent experiments.

Assay in assay [17]: not given
The source holds these as a separate data set.

Where [18] appears, read: Mycobacteroides abscessus, 120 h, day 5, read-out: DST profile, MIC value, Day 5.

In the case of `NCC[C@H](O)C(=O)N[C@@H]1C[C@H](N)[C@@H](O[C@H]2O[C@H](CN)[C@@H](O)[C@H](O)[C@H]2O)[C@H](O)[C@H]1O[C@H]1O[C@H](CO)[C@@H](O)[C@H](N)[C@H]1O` [AMK, Amikacin], the MIC was 64 µg/mL (≈ 109 µM) in assay [1] (setting [18]); 8 µg/mL (≈ 13.7 µM) in assay [2] (setting [18]); 4 µg/mL (≈ 6.83 µM) in assay [3] (setting [18]); 8 µg/mL (≈ 13.7 µM) in assay [4] (setting [18]); 32 µg/mL (≈ 54.6 µM) in [5] (setting [18]); 8 µg/mL (≈ 13.7 µM) in [6] (setting [18]). In addition, the MIC came out at 8 µg/mL (≈ 13.7 µM) in assay [7] (setting [18]); 8 µg/mL (≈ 13.7 µM) in assay [8] (setting [18]); 8 µg/mL (≈ 13.7 µM) in [9] (setting [18]); 64 µg/mL (≈ 109 µM) in assay [10] (setting [18]); 16 µg/mL (≈ 27.3 µM) in assay [11] (setting [18]); 8 µg/mL (≈ 13.7 µM) in assay [12] (setting [18]). Further, the MIC stood at 8 µg/mL (≈ 13.7 µM) in [13] (setting [18]), 64 µg/mL (≈ 109 µM) in assay [14] (setting [18]), 8 µg/mL (≈ 13.7 µM) in [15] (setting [18]) and 32 µg/mL (≈ 54.6 µM) in [16] (setting [18]). For the same compound, the “DST profile, interpretation, Day 5” value is recorded as “R” in assay [1] (day 5, CLSI interpretation); “S” in assay [2] (day 5, CLSI interpretation); “S” in [3] (day 5, CLSI interpretation); “S” in assay [4] (day 5, CLSI interpretation); “I” in assay [5] (day 5, CLSI interpretation); “S” in assay [6] (day 5, CLSI interpretation). Further, the “DST profile, interpretation, Day 5” value is recorded as “S” in assay [7] (day 5, CLSI interpretation); “S” in assay [8] (day 5, CLSI interpretation); “S” in assay [9] (day 5, CLSI interpretation); “R” in [10] (day 5, CLSI interpretation); “S” in [11] (day 5, CLSI interpretation); “S” in assay [12] (day 5, CLSI interpretation). Also, the “DST profile, interpretation, Day 5” value is given as “S” in [13] (day 5, CLSI interpretation); “R” in [14] (day 5, CLSI interpretation); “S” in [15] (day 5, CLSI interpretation); “I” in assay [16] (day 5, CLSI interpretation).
With `CC(C)C[C@H](NC(=O)[C@H](CCCCN)NC(=O)[C@H](CC(C)C)NC(=O)[C@@H](N)CC(C)C)C(=O)N[C@@H](Cc1ccccc1)C(=O)N[C@@H](Cc1ccccc1)C(=O)N1CCC[C@H]1C(=O)N[C@@H](Cc1ccccc1)C(=O)N[C@@H](CC(C)C)C(=O)N[C@@H](CCC(=O)O)C(=O)N[C@H](C(=O)NCC(=O)N[C@@H](CCC(=O)O)C(=O)O)[C@@H](C)O` [Pug-1] (H-LLKLFFPFLETGE-OH), in the assay on Mab ATCC19977 strain, the MIC values was greater than 400 µg/mL.
Turning to `CC(C)[C@H](NC(=O)[C@@H](NC(=O)[C@H](CO)NC(=O)CNC(=O)[C@@H](NC(=O)[C@H](C)NC(=O)CN)C(C)C)C(C)C)C(=O)O` [Pug-2] (H-GAVGSVV-OH), the MIC values against Mab ATCC19977 strain was greater than 400 µg/mL.
In turn, `CC(C)C[C@H](N)C(=O)NCC(=O)N[C@H](C(=O)N[C@@H](Cc1ccc(O)cc1)C(=O)O)[C@@H](C)O` [Pug-3] (H-LGTY-OH) yielded an MIC values with Mab ATCC19977 strain greater than 400 µg/mL.
Take `CC(C)C[C@H](NC(=O)[C@H](Cc1ccccc1)NC(=O)[C@H](CO)NC(=O)[C@@H]1CCCN1C(=O)[C@@H](N)Cc1ccccc1)C(=O)N[C@H](C(=O)NCC(=O)N[C@@H](CCCNC(=N)N)C(=O)O)C(C)C` [Pug-4] (H-FPSFLVGR-OH): the MIC values in the assay on Mab ATCC19977 strain was greater than 400 µg/mL.
Regarding `CC[C@H](C)[C@H](NC(=O)[C@H](CCCCN)NC(=O)[C@H](CCCNC(=N)N)NC(=O)CNC(=O)[C@H](CC(C)C)NC(=O)[C@H](CO)NC(=O)[C@H](CCCNC(=N)N)NC(=O)[C@H](CC(C)C)NC(=O)CNC(=O)CN)C(=O)N[C@@H](CC(C)C)C(=O)N[C@@H](CCCNC(=N)N)C(=O)N[C@@H](C)C(=O)N[C@@H](Cc1c[nH]c2ccccc12)C(=O)N[C@@H](CCCCN)C(=O)N[C@@H](CCCCN)C(=O)O` [S62] (H-GGLRSLGRKILRAWKK-OH), the MIC after 3 days, MAB01 and MAB03 was less than 50 µg/mL. The same compound came in with an MIC values against Mab ATCC19977 strain of 200 µg/mL (≈ 109 µM). In addition, in assay [17], the MIC within 24 h, majority of isolates (10/16) is less than 50 µg/mL.

The values are drawn from article PMC8592419 (PLoS ONE, 2021).
